Experimental data reported in patent US8618289B2 (Ambit Biosciences Corporation, priority 2008, dated 2013).
Read-outs that look alike come from different tables or passages of the source.

Assays:
RAF kinases [1] = biological target: T1, RAF kinases (Homo sapiens, UniProt P15056, V600E); conditions: read-out: BRAF V600E Kd; BRAF V600E
[2] = system: 290 distinct kinases tested excluding mutant variants (321 in the larger panel)
Description: Competition binding assays used herein were developed, validated and performed as described in Fabian et al., Nature Biotechnology 2005, 23, 329-336. […] The liganded beads were blocked with excess biotin and washed with blocking buffer (SeaBlock (Pierce), 1% BSA, 0.05% Tween 20, 1 mM DTT) to remove unbound ligand and to reduce non-specific binding. […] Test compounds were prepared as 100× stocks in DMSO and rapidly diluted into the aqueous environment. DMSO was added to control assays lacking a test compound. Primary screen interactions were performed in polypropylene 384-well plates in a final volume of 34 μt, while Kd determinations were performed in polystyrene 96-well plates in a final volume of 135 pt. […] The kinase concentration in the eluates was measured by quantitative PCR. Each kinase was tested individually against each compound. Kds were determined using eleven serial threefold dilutions. A selectivity score, which is a quantitative measure of selectivity of a compound against a panel of enzymes, may be calculated for a compound by dividing the number of enzymes for which a compound meets a set criteria, (for example, a binding constant of 100 nM or less), by the total number of enzymes tested. […] (Note, for those compounds tested in a larger kinase panel, as indicated by an asterisk (*) next to the S35 score, the divisor is 321 (i.e. the larger panel contains 321 distinct kinases, excluding mutant variants.)).

[3] = system: MEK1 phosphorylation in the A375 human melanoma cell line; assay: cells; conditions: A-375, read-out: pMEK IC50
A375 cells = assay: cells; conditions: Homo sapiens, A-375, read-out: A375 Viability EC50
Description: The following day, the medium was replaced with 0.5% FBS in M3 for overnight incubation. […] The cells were incubated with compound or control for 72 hours at 37° C. under 10% CO2. Following incubation, Cell Titer Blue reagent (Promega) was added to each well containing compounds or controls, and then incubated for 3 hours at 37° C. under 10% CO2. Proliferation was measured by fluorescence with excitation at 560 nm and emission at 590 nm using SoftMax Pro.

RAF kinases [4] = biological target: T2, RAF kinases (Homo sapiens, UniProt P04049); assay: biochemical
RAF kinases [5] = biological target: T3, RAF kinases (Homo sapiens, UniProt P15056); assay: biochemical
RAF kinases [6] = biological target: T2, RAF kinases; conditions: read-out: RAF1 Kd; RAF1
RAF kinases [7] = biological target: T3, RAF kinases; conditions: read-out: BRAF WT Kd; BRAF WT
RAF kinases [8] = biological target: T1, RAF kinases; assay: biochemical
[9] = no asterisk: panel of 290 distinct kinases
[10] = asterisk: panel of 321 distinct kinases

T3 sequence (P15056 whole entry): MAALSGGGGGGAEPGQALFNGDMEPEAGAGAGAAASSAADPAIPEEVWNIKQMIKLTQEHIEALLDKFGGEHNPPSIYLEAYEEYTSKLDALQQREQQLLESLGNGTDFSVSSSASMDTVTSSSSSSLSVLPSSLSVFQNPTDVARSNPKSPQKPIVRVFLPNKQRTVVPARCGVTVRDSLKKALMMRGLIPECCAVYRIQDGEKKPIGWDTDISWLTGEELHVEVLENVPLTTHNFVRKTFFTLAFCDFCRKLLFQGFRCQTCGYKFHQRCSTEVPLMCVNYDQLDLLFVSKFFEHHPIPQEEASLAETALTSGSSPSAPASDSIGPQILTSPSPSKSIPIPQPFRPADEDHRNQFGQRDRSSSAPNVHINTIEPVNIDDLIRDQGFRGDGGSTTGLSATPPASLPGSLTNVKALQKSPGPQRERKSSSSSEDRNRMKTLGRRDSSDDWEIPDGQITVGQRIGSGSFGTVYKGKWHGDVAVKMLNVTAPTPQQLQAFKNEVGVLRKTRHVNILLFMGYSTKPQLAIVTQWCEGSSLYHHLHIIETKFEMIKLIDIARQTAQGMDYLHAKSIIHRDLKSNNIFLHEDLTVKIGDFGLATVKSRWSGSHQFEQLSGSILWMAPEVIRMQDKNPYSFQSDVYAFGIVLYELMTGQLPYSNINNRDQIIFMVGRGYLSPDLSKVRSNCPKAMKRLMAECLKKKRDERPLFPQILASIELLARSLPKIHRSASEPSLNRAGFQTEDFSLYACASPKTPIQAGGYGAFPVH
T1 sequence (P15056 whole entry V600E): as the sequence (P15056 whole entry) above, with V600E counted along it
T2 sequence (P04049 whole entry): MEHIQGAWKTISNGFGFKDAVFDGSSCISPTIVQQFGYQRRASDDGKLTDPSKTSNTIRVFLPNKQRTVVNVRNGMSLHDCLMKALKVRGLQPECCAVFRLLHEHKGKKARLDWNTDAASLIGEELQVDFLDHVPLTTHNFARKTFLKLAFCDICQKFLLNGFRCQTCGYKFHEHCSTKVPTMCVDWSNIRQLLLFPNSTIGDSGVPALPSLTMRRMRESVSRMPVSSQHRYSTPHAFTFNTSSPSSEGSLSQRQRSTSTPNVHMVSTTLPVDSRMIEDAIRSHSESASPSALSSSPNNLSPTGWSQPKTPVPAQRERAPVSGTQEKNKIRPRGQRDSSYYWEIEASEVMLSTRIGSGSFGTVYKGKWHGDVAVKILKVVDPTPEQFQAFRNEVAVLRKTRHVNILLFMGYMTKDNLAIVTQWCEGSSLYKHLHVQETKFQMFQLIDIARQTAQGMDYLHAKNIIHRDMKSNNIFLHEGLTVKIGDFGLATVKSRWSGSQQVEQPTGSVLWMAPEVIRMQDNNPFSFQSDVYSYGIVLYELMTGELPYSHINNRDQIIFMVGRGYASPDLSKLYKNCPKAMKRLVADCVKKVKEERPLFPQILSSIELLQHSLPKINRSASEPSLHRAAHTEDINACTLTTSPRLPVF

Kd (RAF kinases [6]) [nM] | Kd (RAF kinases [7]) [nM] | Kd (RAF kinases [8]) [nM] | Structure (SMILES) | Kd (RAF kinases [1]) [nM] | S35 [2, 9] | IC50 [3] [nM] | EC50 (A375 cells) [nM] | Kd (RAF kinases [4]) [nM] | Kd (RAF kinases [5]) [nM] | S35 [2, 10]
 |  |  | COc1cc2ncnc(Sc3cccc(NC(=O)Nc4cc(C(C)(C)C)nn4-c4cccnc4)c3)c2cc1OC [Ex 323, 1-(3-tert-butyl-1-(pyridin-3-yl)-1H-pyrazol-5-yl)-3-(3-(6,7-dimethoxyquinazolin-4-ylthio)phenyl)urea] | < 250 | D (D > 0.40) | < 250 | 250 to 500 | 500 to 1000 | 500 to 1000 | 
 |  |  | COc1cc2ncnc(Sc3cccc(NC(=O)Nc4cc(C(C)(C)C)nn4-c4ccncc4)c3)c2cc1OC [Ex 337, 1-(3-tert-butyl-1-(pyridin-4-yl)-1H-pyrazol-5-yl)-3-(3-(6,7-dimethoxyquinazolin-4-ylthio)phenyl)urea] | < 250 | D (D > 0.40) | < 250 |  | 500 to 1000 | 500 to 1000 | 
 |  |  | COc1cc2ncnc(Sc3cccc(NC(=O)Nc4cc(C(C)(F)F)nn4-c4ccccc4)c3)c2cc1OC [Ex 319, 1-(3-(1,1-difluoroethyl)-1-phenyl-1H-pyrazol-5-yl)-3-(3-(6,7-dimethoxyquinazolin-4-ylthio)phenyl)urea] | < 250 | C (0.20 < C ≦ 0.40) | < 250 | < 250 | 250 to 500 | 500 to 1000 | 
 |  |  | COc1cc2ncnc(Sc3cccc(NC(=O)Nc4cc(C(F)(F)F)n(-c5ccccc5)n4)c3)c2cc1OC [Ex 170, 1-[3-(6,7-dimethoxyquinazolin-4-ylthio)phenyl]-3-[1-phenyl-5-(trifluoromethyl)-1H-pyrazol-3-yl]urea] |  |  | 250 to 500 | 250 to 500 |  |  | B* (0.10 < B ≦ 0.20)
 |  |  | COc1cc2ncnc(Oc3cccc(NC(=O)Nc4cc(C(C)C)nn4-c4cncc(F)c4)c3)c2cc1OC [Ex 314, 1-(3-(6,7-dimethoxyquinazolin-4-yloxy)phenyl)-3-(1-(5-fluoropyridin-3-yl)-3-isopropyl-1H-pyrazol-5-yl)urea] | < 250 | D (D > 0.40) | 250 to 500 | < 250 | 250 to 500 | 500 to 1000 | 
 |  |  | COc1cc2ncnc(Sc3cccc(NC(=O)Nc4cc(C(F)(F)F)n(C)n4)c3)c2cc1OC [Ex 194, 1-[3-(6,7-dimethoxyquinazolin-4-ylthio)phenyl]-3-[1-methyl-5-(trifluoromethyl)-1H-pyrazol-3-yl]urea] |  |  | 250 to 500 | 500 to 1000 |  |  | C* (0.20 < C ≦ 0.40)
 |  |  | COc1cc2ncnc(Oc3cccc(NC(=O)Nc4cc(C(C)(C)C)nn4-c4cccnc4C)c3)c2cc1OC [Ex 305, 1-(3-tert-butyl-1-(2-methylpyridin-3-yl)-1H-pyrazol-5-yl)-3-(3-(6,7-dimethoxyquinazolin-4-yloxy)phenyl)urea] | < 250 | D (D > 0.40) | < 250 | < 250 | 250 to 500 | 500 to 1000 | 
 |  |  | COc1cc2ncnc(Oc3cccc(NC(=O)Nc4cc(C(C)(C)C)nn4-c4cccnc4)c3)c2cc1OC [Ex 322, 1-(3-tert-butyl-1-(pyridin-3-yl)-1H-pyrazol-5-yl)-3-(3-(6,7-dimethoxyquinazolin-4-yloxy)phenyl)urea] | < 250 | D (D > 0.40) | < 250 |  | 250 to 500 | 250 to 500 | 
 |  |  | COc1cc2ncnc(Oc3cccc(NC(=O)Nc4cc(C(F)(F)F)nn4-c4cccc(C)c4)c3)c2cc1OC [Ex 338, 1-(3-(6,7-dimethoxyquinazolin-4-yloxy)phenyl)-3-(1-m-tolyl-3-(trifluoromethyl)-1H-pyrazol-5-yl)urea] | < 250 | C (0.20 < C ≦ 0.40) | < 250 | < 250 | 250 to 500 | 500 to 1000 | 
 |  |  | COc1cc(OC2CCOCC2)c2c(Sc3cccc(NC(=O)Nc4cc(C(C)(C)C)on4)c3)ncnc2c1 |  | C (0.20 < C ≦ 0.40) |  |  |  |  | 
 |  |  | COc1cc2ncnc(Sc3cccc(NC(=O)Nc4cc(C(C)(C)C)nn4-c4cncc(F)c4)c3)c2cc1OC [Ex 327, 1-(3-tert-butyl-1-(5-fluoropyridin-3-yl)-1H-pyrazol-5-yl)-3-(3-(6,7-dimethoxyquinazolin-4-ylthio)phenyl)urea] | < 250 | D (D > 0.40) | < 250 |  | 500 to 1000 | 500 to 1000 | 
 |  |  | COc1cc2ncnc(Sc3cccc(NC(=O)Nc4cc(C(C)C)nn4-c4ccccc4)c3)c2cc1OC [Ex 325, 1-(3-(6,7-dimethoxyquinazolin-4-ylthio)phenyl)-3-(3-isopropyl-1-phenyl-1H-pyrazol-5-yl)urea] | < 250 | C (0.20 < C ≦ 0.40) | < 250 | < 250 | 250 to 500 | 250 to 500 | 
 |  |  | COc1cc2c(Sc3cccc(NC(=O)Nc4cc(C(C)(C)F)no4)c3)ncnc2cc1OCCN1CCOCC1 [Ex 248, 1-(3-(2-fluoropropan-2-yl)isoxazol-5-yl)-3-(3-(6-methoxy-7-(2-morpholinoethoxy)quinazolin-4-ylthio)phenyl)urea] | < 250 |  | 250 to 500 | > 1000 | 250 to 500 | 250 to 500 | C* (0.20 < C ≦ 0.40)
 |  |  | COc1cc2ncnc(Oc3cccc(NC(=O)Nc4cc(C(C)(F)F)nn4-c4ccccc4)c3)c2cc1OC [Ex 318, 1-(3-(1,1-difluoroethyl)-1-phenyl-1H-pyrazol-5-yl)-3-(3-(6,7-dimethoxyquinazolin-4-yloxy)phenyl)urea] | < 250 | C (0.20 < C ≦ 0.40) | < 250 | < 250 | 250 to 500 | 250 to 500 | 
 |  |  | COc1cc2ncnc(Oc3cccc(NC(=O)Nc4cc(C(C)(C)C)nn4-c4ccc(C)nc4)c3)c2cc1OC [Ex 312, 1-(3-tert-butyl-1-(6-methylpyridin-3-yl)-1H-pyrazol-5-yl)-3-(3-(6,7-dimethoxyquinazolin-4-yloxy)phenyl)urea] | < 250 | D (D > 0.40) | < 250 | < 250 | 250 to 500 | 500 to 1000 | 
> 1000 | > 1000 | 250 to 500 | COc1cc2ncnc(Oc3cccc(NC(=O)Nc4cc(C(F)(F)C(F)(F)F)nn4-c4ccccc4)c3)c2cc1OC [Ex 304, 1-(3-(6,7-dimethoxyquinazolin-4-yloxy)phenyl)-3-(3-(perfluoroethyl)-1-phenyl-1H-pyrazol-5-yl)urea] |  |  | 250 to 500 | < 250 |  |  | 
 |  |  | COc1cc2ncnc(Oc3cccc(NC(=O)Nc4cc(C(C)(C)C)nn4-c4cncc(F)c4)c3)c2cc1OC [Ex 326, 1-(3-tert-butyl-1-(5-fluoropyridin-3-yl)-1H-pyrazol-5-yl)-3-(3-(6,7-dimethoxyquinazolin-4-yloxy)phenyl)urea] | < 250 | D (D > 0.40) | < 250 |  | 500 to 1000 | 500 to 1000 | 
 |  |  | COc1cc2ncnc(Sc3cccc(NC(=O)Nc4cc(C(C)(C)C)nn4CC(C)C)c3)c2cc1OC [Ex 333, 1-(3-tert-butyl-1-isobutyl-1H-pyrazol-5-yl)-3-(3-(6,7-dimethoxyquinazolin-4-ylthio)phenyl)urea] | < 250 | C (0.20 < C ≦ 0.40) | 500 to 1000 |  | 250 to 500 | 250 to 500 | 
> 1000 | > 1000 | 500 to 1000 | COCCOc1cc2ncnc(Oc3cccc(NC(=O)Nc4cc(C(F)(F)F)nn4-c4ccc(C)cc4)c3)c2cc1OC [Ex 227, 1-{3-[6-methoxy-7-(2-methoxyethoxy)quinazolin-4-yloxy]phenyl}-3-[1-p-tolyl-3-(trifluoromethyl)-1H-pyrazol-5-yl]urea] |  |  | 250 to 500 | 250 to 500 |  |  | 
 |  |  | COc1cc2ncnc(Oc3cccc(NC(=O)Nc4cc(C(C)(C)C)nn4-c4ccncc4)c3)c2cc1OC [Ex336, 1-(3-tert-butyl-1-(pyridin-4-yl)-1H-pyrazol-5-yl)-3-(3-(6,7-dimethoxyquinazolin-4-yloxy)phenyl)urea] | < 250 | D (D > 0.40) | < 250 |  | 500 to 1000 | 500 to 1000 | 
> 1000 | > 1000 | 500 to 1000 | COCCOc1cc2ncnc(Sc3cccc(NC(=O)Nc4cc(C(C)(C)C)nn4-c4ccc(C)cc4C)c3)c2cc1OC [Ex 283, 1-(3-tert-butyl-1-(2,4-dimethylphenyl)-1H-pyrazol-5-yl)-3-(3-(6-methoxy-7-(2-methoxyethoxy)quinazolin-4-ylthio)phenyl)urea] |  |  | < 250 | > 1000 |  |  | 
 |  |  | COc1cc2ncnc(Oc3cccc(NC(=O)Nc4cc(C(C)(C)C)nn4-c4ccc(C#N)cc4)c3)c2cc1OC [Ex 328, 1-(3-tert-butyl-1-(4-cyanophenyl)-1H-pyrazol-5-yl)-3-(3-(6,7-dimethoxyquinazolin-4-yloxy)phenyl)urea] | < 250 | D (D > 0.40) | < 250 |  | 250 to 500 | 250 to 500 | 
> 1000 | > 1000 | 500 to 1000 | COCCOc1cc2ncnc(Oc3cccc(NC(=O)Nc4cc(C(C)(CF)CF)nn4-c4ccccc4)c3)c2cc1OC [Ex 228, 1-[3-(1,3-difluoro-2-methylpropan-2-yl)-1-phenyl-1H-pyrazol-5-yl]-3-{3-[6-methoxy-7-(2-methoxyethoxy)quinazolin-4-yloxy]phenyl}urea] |  |  | < 250 | > 1000 |  |  | 
